Reference: US12630498B2 (Genzyme Corporation, priority 2019, dated 2026)

How the values were obtained:
[1] = molecular target: T1, CFTR-mediated transepithelial chloride transport in primary human bronchial epithelial cells from a ΔF508 homozygous CF donor (Homo sapiens, UniProt P13569, DEL508-508); assay: TECC24 recording of CFTR-mediated transepithelial chloride transport in CF-HBE cells (AUC fold over DMSO); assay type: cell-based; conditions: test agent 10 μM, 48 hours incubation, AUC of forskolin-stimulated IEQ relative to DMSO
T1 construct: Primary human bronchial epithelial cells from a ΔF508 homozygous CF donor; host or cells: primary CF-HBE cells, ΔF508 homozygous donor
T1 sequence (P13569 with tags, fused parts or gaps DEL508-508): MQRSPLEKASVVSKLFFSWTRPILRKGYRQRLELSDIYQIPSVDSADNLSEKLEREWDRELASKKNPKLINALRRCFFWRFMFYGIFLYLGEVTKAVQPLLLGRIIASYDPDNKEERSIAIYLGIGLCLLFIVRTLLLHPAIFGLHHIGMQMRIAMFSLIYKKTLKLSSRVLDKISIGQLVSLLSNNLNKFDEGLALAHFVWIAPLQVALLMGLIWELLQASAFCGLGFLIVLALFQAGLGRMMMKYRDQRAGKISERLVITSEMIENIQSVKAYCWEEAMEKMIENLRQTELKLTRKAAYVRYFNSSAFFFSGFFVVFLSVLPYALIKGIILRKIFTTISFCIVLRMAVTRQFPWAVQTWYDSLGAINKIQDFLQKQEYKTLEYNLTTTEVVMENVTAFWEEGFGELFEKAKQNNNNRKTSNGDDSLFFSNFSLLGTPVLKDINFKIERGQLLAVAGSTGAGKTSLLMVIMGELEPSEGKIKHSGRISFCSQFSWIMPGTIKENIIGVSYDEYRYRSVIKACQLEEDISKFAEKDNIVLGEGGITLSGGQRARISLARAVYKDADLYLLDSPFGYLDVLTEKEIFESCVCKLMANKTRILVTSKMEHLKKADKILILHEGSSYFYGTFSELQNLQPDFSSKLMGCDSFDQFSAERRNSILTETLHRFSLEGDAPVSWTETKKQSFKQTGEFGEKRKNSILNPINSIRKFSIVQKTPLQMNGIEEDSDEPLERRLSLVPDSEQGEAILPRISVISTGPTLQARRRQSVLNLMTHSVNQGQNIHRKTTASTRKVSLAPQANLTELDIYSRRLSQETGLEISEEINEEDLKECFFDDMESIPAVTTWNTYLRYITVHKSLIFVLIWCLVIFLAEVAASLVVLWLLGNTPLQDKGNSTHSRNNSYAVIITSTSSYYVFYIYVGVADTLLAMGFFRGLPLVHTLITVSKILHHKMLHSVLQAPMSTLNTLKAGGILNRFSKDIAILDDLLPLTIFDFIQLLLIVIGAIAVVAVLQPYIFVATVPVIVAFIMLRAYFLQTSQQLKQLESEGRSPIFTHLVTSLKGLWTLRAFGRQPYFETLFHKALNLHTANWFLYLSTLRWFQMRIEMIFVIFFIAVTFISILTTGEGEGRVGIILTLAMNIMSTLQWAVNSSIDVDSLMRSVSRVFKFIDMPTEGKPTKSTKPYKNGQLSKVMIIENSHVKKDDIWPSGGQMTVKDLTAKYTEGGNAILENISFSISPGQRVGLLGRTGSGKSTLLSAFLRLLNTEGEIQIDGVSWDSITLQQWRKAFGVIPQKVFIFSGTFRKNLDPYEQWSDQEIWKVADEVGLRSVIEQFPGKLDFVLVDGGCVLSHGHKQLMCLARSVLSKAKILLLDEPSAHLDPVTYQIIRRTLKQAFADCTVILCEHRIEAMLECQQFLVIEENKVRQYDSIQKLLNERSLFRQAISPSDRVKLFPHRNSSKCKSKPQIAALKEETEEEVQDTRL
Method in brief: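 Primary ΔF508/ΔF508 CF-HBE cells on inserts exposed to test agent in IL-13-containing medium for 48 h at 36.5 °C. Current-clamp VT/TEER recording in pH 7.4 HEPES saline with benzamil 10 μM, forskolin 10 μM, then CFTRinh-172 20 μM. AUC of equivalent Cl⁻ current between forskolin and inhibitor, expressed as ratio over vehicle.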

[2] = molecular target: T2, human Cystic Fibrosis Transmembrane Conductance Regulator (CFTR) harboring the ΔF508 mutation (Homo sapiens, UniProt P13569, DEL508-508); assay: H441 cell ΔF508-CFTR-HRP cell surface assay (Emax and EC50); assay type: cell-based; conditions: for Emax: NCI-H441, NA = Not active
T2 construct: expressed in transfected cells; host or cells: H441 carcinoma line (G418-selected)
T2 sequence (P13569 with tags, fused parts or gaps DEL508-508): as above
Method in brief: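 H441 and 41o- bronchial epithelial cells expressing ΔF508-CFTR with an extracellular-loop-4 HRP tag were treated with a 15-point compound series (24.5–0.001 μM) for two nights, H441 at 27° C, 41o- at 37° C with 0.0005 mg/ml doxycycline. Surface HRP luminescence read; % of maximum VX809 signal and EC50 derived.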

Row | SMILES | TECC24 AUC fold over DMSO @10 μM [1] | EC50 [2] | Emax [2]
1 | CCCC(C)(CC)[C@H](NC(=O)c1ccc2ccc(Cl)cc2c1OCc1ccc(C(F)(F)F)cc1)C(=O)O (stereo partly drawn) [Example 255, (2S)-2-[[7-chloro-1-[[4-(trifluoromethyl)phenyl]methoxy]naphthalene-2-carbonyl]amino]-3-ethyl-3-methyl-hexanoic Acid] | A (“A” refers to AUC @10 uM >6) | 100 nM | 324%
2 | CC(C)(S[C@@H]1C[C@@H]2CC[C@H]1C2)[C@H](NC(=O)c1ccc2cc(F)ccc2c1OCc1ccc(SC(F)(F)F)cc1)C(=O)O [Example 177, (R)-3-(((1S,2R,4R)-bicyclo[2.2.1]heptan-2-yl)thio)-2-(6-fluoro-1-((4-((trifluoromethyl)thio)benzyl)oxy)-2-naphthamido)-3-methylbutanoic Acid] | C (“C” refers to AUC @10 uM <4) | 700 nM | 64.7%
3 | CC1(C(NC(=O)c2ccc3cc(F)ccc3c2OCc2ccc(S(F)(F)(F)(F)F)cc2)C(=O)O)CCCCC1 (stereo not drawn) [Example 50, 2-(6-fluoro-1-((4-(pentafluoro-16-sulfanyl)benzyl)oxy)-2-naphthamido)-2-(1-methylcyclohexyl)acetic Acid] | C (“C” refers to AUC @10 uM <4) | 400 nM | 57.8%
4 | CC(c1ccccc1)C(NC(=O)c1ccc2ccccc2c1OCc1ccc(C(F)(F)F)cc1)C(=O)O (stereo not drawn) [Example 127, 3-phenyl-2-(1-((4-(trifluoromethyl)benzyl)oxy)-2-naphthamido)butanoic Acid] | C (“C” refers to AUC @10 uM <4) | 1100 nM | 98.5%
5 | O=C(N[C@H](C(=O)O)C(c1ccccc1)c1ccccc1)c1ccc2cc(F)ccc2c1OCC1CCCCC1 [Example 203] | C (“C” refers to AUC @10 uM <4) | 800 nM | 101%
6 | O=C(N[C@H](C(=O)O)C(c1ccccc1)c1ccccc1)c1ccc2ccccc2c1OCC1CCCCC1 [Example 199, (S)-2-(1-(cyclohexylmethoxy)-2-naphthamido)-3,3-diphenylpropanoic Acid] | C (“C” refers to AUC @10 uM <4) | 500 nM | 129%
7 | CC(C)(C)[C@H](NC(=O)c1ccc2cc(F)ccc2c1OCc1ccc(OC(F)(F)F)cc1)C(=O)O [Example 19, (S)-2-(6-fluoro-1-((4-(trifluoromethoxy)benzyl)oxy)-2-naphthamido)-3,3-dimethylbutanoic Acid] | C (“C” refers to AUC @10 uM <4) | 21900 nM | 48.3%
8 | CCC(C)(C)[C@H](NC(=O)c1ccc2ccc(C)cc2c1OCc1ccc(OC(F)(F)F)cc1)C(=O)O [Example 280, (S)-3,3-dimethyl-2-(7-methyl-1-((4-(trifluoromethoxy)benzyl)oxy)-2-naphthamido)pentanoic Acid] | A (“A” refers to AUC @10 uM >6) | 300 nM | 309%
9 | CC(C)(S[C@@H]1C[C@@H]2CC[C@H]1C2)[C@H](NC(=O)c1ccc2ccccc2c1OCc1ccc(C(F)(F)F)cc1)C(=O)O [Example 173, (R)-3-(((1S,2R,4R)-bicyclo[2.2.1]heptan-2-yl)thio)-3-methyl-2-(1-((4-(trifluoromethyl)benzyl)oxy)-2-naphthamido)butanoic Acid] | B (“B” refers to AUC @10 uM between 4-6) | 700 nM | 164%
10 | O=C(N[C@@H](Cc1ccc(C(F)(F)F)cc1)C(=O)O)c1ccc2cc(F)ccc2c1OCc1nc2ccccc2s1 [Example 217, (S)-2-(1-(benzo[d]thiazol-2-ylmethoxy)-6-fluoro-2-naphthamido)-3-(4-(trifluoromethyl)phenyl)propanoic Acid] | C (“C” refers to AUC @10 uM <4) | 15900 nM | 65.8%
11 | C#CC(C)(C)C(NC(=O)c1ccc2ccc(C)cc2c1OCc1ccc(C(F)(F)F)cc1)C(=O)O (stereo not drawn) [Example 219, 3,3-dimethyl-2-[[7-methyl-1-[[4-(trifluoromethyl)phenyl]methoxy]naphthalene-2-carbonyl]amino]pent-4-ynoic Acid] | A (“A” refers to AUC @10 uM >6) | 400 nM | 191%
12 | Cc1ccc2ccc(C(=O)N[C@H](C(=O)O)C(C)(C)CF)c(OCC3CCCCC3)c2c1 [Example 282, (S)-2-(1-(cyclohexylmethoxy)-7-methyl-2-naphthamido)-4-fluoro-3,3-dimethylbutanoic Acid] | A (“A” refers to AUC @10 uM >6) | 700 nM | 285%
13 | CC1([C@H](NC(=O)c2ccc3ccc(C(F)(F)F)cc3c2OCc2ccc(OC(F)(F)F)cc2)C(=O)O)CC1 [Example 297, (S)-2-(1-methylcyclopropyl)-2-(1-((4-(trifluoromethoxy)benzyl)oxy)-7-(trifluoromethyl)-2-naphthamido)acetic Acid] | A (“A” refers to AUC @10 uM >6) | 500 nM | 137%
14 | CC(C)(C)[C@H](NC(=O)c1ccc2ccc(-c3cscn3)cc2c1OCc1ccc(C(F)(F)F)cc1)C(=O)O [Example 243, (2S)-3,3-dimethyl-2-[[7-thiazol-4-yl-1-[[4-(trifluoromethyl)phenyl]methoxy]naphthalene-2-carbonyl]amino]butanoic Acid] | A (“A” refers to AUC @10 uM >6) | 500 nM | 159%
15 | O=C(N[C@H](C(=O)O)c1cccc2ccccc12)c1ccc2ccccc2c1OCc1ccc(C(F)(F)F)cc1 [Example 142, (S)-2-(naphthalen-1-yl)-2-(1-((4-(trifluoromethyl)benzyl)oxy)-2-naphthamido)acetic Acid] | C (“C” refers to AUC @10 uM <4) | 2200 nM | 86.9%
16 | CCC(C)(C)[C@H](NC(=O)c1ccc2ccccc2c1OCc1ccc(C(F)(F)F)cc1)C(=O)O [Example 78, (S)-3,3-dimethyl-2-(1-((4-(trifluoromethyl)benzyl)oxy)-2-naphthamido)pentanoic Acid] | A (“A” refers to AUC @10 uM >6) | 400 nM | 242%
17 | CC(C)(C)[C@@H](NC(=O)c1ccc2ccc(C(F)(F)F)cc2c1OCc1ccc(C(F)(F)F)cc1)C(=O)O [Example 307, (R)-3,3-dimethyl-2-(7-(trifluoromethyl)-1-((4-(trifluoromethyl)benzyl)oxy)-2-naphthamido)butanoic Acid] | C (“C” refers to AUC @10 uM <4) | 600 nM | 81.1%
18 | CCC(C)(C)[C@H](NC(=O)c1ccc2ccccc2c1OCc1ccc(SC(F)(F)F)cc1)C(=O)O [Example 55, (S)-3,3-dimethyl-2-(1-((4-((trifluoromethyl)thio)benzyl)oxy)-2-naphthamido)pentanoic Acid] | B (“B” refers to AUC @10 uM between 4-6) | 600 nM | 115%
19 | CC(C)(C)[C@H](NC(=O)c1ccc2ccccc2c1OCc1ccc(S(F)(F)(F)(F)F)cc1)C(=O)O [Example 67, (S)-3,3-dimethyl-2-(1-((4-(pentafluoro-l6-sulfanyl)benzyl)oxy)-2-naphthamido)butanoic Acid] | A (“A” refers to AUC @10 uM >6) | 800 nM | 112%
20 | CC(C)(C)[C@@H](NC(=O)c1ccc2ccc(C(F)(F)F)cc2c1OCc1ccc(OC(F)(F)F)cc1)C(=O)O [Example 287, (R)-3,3-dimethyl-2-(1-((4-(trifluoromethoxy)benzyl)oxy)-7-(trifluoromethyl)-2-naphthamido)butanoic Acid] | C (“C” refers to AUC @10 uM <4) | 300 nM | 57.1%
21 | O=C(N[C@@H](Cc1ccc2c(c1)OCO2)C(=O)O)c1ccc2ccccc2c1OCc1ccc(C(F)(F)F)cc1 [Example 106, (S)-3-(benzo[d][1,3]dioxol-5-yl)-2-(1-((4-(trifluoromethyl)benzyl)oxy)-2-naphthamido)propanoic Acid] | C (“C” refers to AUC @10 uM <4) | 10400 nM | 82.1%
22 | CC(C)(C)[C@@H](NC(=O)c1ccc2ccc(Cl)cc2c1OCc1ccc(OC(F)(F)F)cc1)C(=O)O [Example 285, (R)-2-(7-chloro-1-((4-(trifluoromethoxy)benzyl)oxy)-2-naphthamido)-3,3-dimethylbutanoic Acid] | C (“C” refers to AUC @10 uM <4) | 800 nM | 99.1%
23 | CC(C)(C)C[C@H](NC(=O)c1ccc2ccccc2c1OC[C@H]1CC[C@H](C(F)(F)F)CC1)C(=O)O [Example 179, (S)-4,4-dimethyl-2-(1-(((1r,4S)-4-(trifluoromethyl)cyclohexyl)methoxy)-2-naphthamido)pentanoic Acid] | C (“C” refers to AUC @10 uM <4) | 3400 nM | 103%
24 | CCC(C)(C)[C@H](NC(=O)c1ccc2ccc(C(F)F)cc2c1OCc1ccc(OC(F)(F)F)cc1)C(=O)O [Example 250, (2S)-2-[[7-(difluoromethyl)-1-[[4-(trifluoromethoxy)phenyl]methoxy]naphthalene-2-carbonyl]amino]-3,3-dimethyl-pentanoic Acid] | A (“A” refers to AUC @10 uM >6) | 100 nM | 270%
